Values after ≈ are worked out from the molar mass of the structure shown. Read-outs that look alike come from different tables or passages of the source. Numbered stars: 1 amine (or outer) side, 2 acyl side, 3 side chain; on linkers, the order of the positions; unused ones are H or OH. Bridge positions count the residues as written; N and C are the ends. Side chains are listed from the residue outwards. Peptide text beside a SMILES is read from it. * marks the point of attachment. C20 diacid = O=C(O)CCCCCCCCCCCCCCCCCCC(=O)*; γGlu = O=C(O)[C@H](CCC(=O)[*:2])N[*:1]
Assay: ASSAY (IV) determination of solubility
Assay type: physicochemical
Outline: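 Samples of polypeptide, prepared from a water stock at […] and diluted 1:1 into 100 mM buffers spanning pH 3.0 to 8.0, stood 18 hours at room temperature. Polypeptide concentration was then determined by UPLC following centrifugation.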

[1] = bistrispropane buffer, pH 6.5, read-out: Solubility pH 6.5 Concentration
[2] = bistrispropane buffer, pH 7.5, read-out: Solubility pH 7.5 Concentration
[3] = bistrispropane buffer, pH 6.0, read-out: Solubility pH 6.0 Concentration
[4] = bistrispropane buffer, pH 7.0, read-out: Solubility pH 7.0 Concentration
[5] = bistrispropane buffer, pH 8.0, read-out: Solubility pH 8.0 Concentration
[6] = glycylglycine buffer, pH 3.0, read-out: Solubility pH 3.0 Concentration
[7] = glycylglycine buffer, pH 4.0, read-out: Solubility pH 4.0 Concentration
[8] = glycylglycine buffer, pH 5.0, read-out: Solubility pH 5.0 Concentration

solubility at 18 h [1] [µM]	solubility at 18 h [2] [µM]	solubility at 18 h [3] [µM]	solubility at 18 h [4] [µM]	solubility at 18 h [5] [µM]	solubility at 18 h [6] [µM]	solubility at 18 h [7] [µM]	solubility at 18 h [8] [µM]	SMILES
≥ 200	113 (≈ 519 µg/mL)	≥ 200	162 (≈ 744 µg/mL)	108 (≈ 496 µg/mL)	≥ 200	≥ 200	≥ 200	CC[C@H](C)[C@H](NC(=O)[C@H](C)NC(=O)CNC(=O)[C@H](Cc1ccccc1)NC(=O)[C@H](CC(N)=O)NC(=O)[C@@H]1CCCN1C(=O)[C@H](CO)NC(=O)[C@H](CO)NC(=O)[C@H](Cc1c[nH]cn1)NC(=O)[C@H](CCCNC(=N)N)NC(=O)[C@H](CC(C)C)NC(=O)[C@H](Cc1ccccc1)NC(=O)[C@H](CCC(=O)O)NC(=O)[C@H](C)NC(=O)[C@H](CC(C)C)NC(=O)[C@H](CCCNC(=N)N)NC(=O)[C@H](CCC(N)=O)NC(=O)[C@@H](NC(=O)[C@H](C)NC(=O)[C@@H]1CSSC[C@H](NC(=O)[C@@H](N)CCCCNC(=O)CC[C@H](NC(=O)CC[C@H](NC(=O)CCCCCCCCCCCCCCCCCCC(=O)O)C(=O)O)C(=O)O)C(=O)N[C@@H](CC(N)=O)C(=O)N[C@@H]([C@@H](C)O)C(=O)N[C@@H](C)C(=O)N[C@@H]([C@@H](C)O)C(=O)N1)[C@@H](C)O)C(=O)N1CCC[C@H]1C(=O)N[C@@H](CO)C(=O)N[C@@H](CO)C(=O)N[C@H](C(=O)N[C@@H](CC(N)=O)C(=O)N[C@H](C(=O)NCC(=O)N[C@@H](CCCNC(=N)N)C(=O)N[C@@H](CC(N)=O)C(=O)N[C@H](C(=O)N[C@@H](Cc1ccc(O)cc1)C(N)=O)[C@@H](C)O)C(C)C)[C@@H](C)O [Example 88] (H-K([γGlu-γGlu-C20 diacid])CNTATCATQRLAEFLRHSSPNFGAIPSSTNVGRNTY-NH2; disulfide 2-7)
≥ 200	88 (≈ 396 µg/mL)	≥ 200	154 (≈ 693 µg/mL)	113 (≈ 508 µg/mL)	≥ 200	197 (≈ 886 µg/mL)	195 (≈ 877 µg/mL)	CC[C@H](C)[C@H](NC(=O)[C@H](C)NC(=O)CNC(=O)[C@H](Cc1ccccc1)NC(=O)[C@H](CC(N)=O)NC(=O)[C@@H]1CCCN1C(=O)[C@H](CO)NC(=O)[C@H](CO)NC(=O)[C@H](Cc1c[nH]cn1)NC(=O)[C@H](CCCNC(=N)N)NC(=O)[C@H](CC(C)C)NC(=O)[C@H](Cc1ccccc1)NC(=O)[C@H](Cc1c[nH]cn1)NC(=O)[C@H](C)NC(=O)[C@H](CC(C)C)NC(=O)[C@H](CCCNC(=N)N)NC(=O)[C@H](CCC(N)=O)NC(=O)[C@@H](NC(=O)[C@H](C)NC(=O)[C@@H]1CSSC[C@H](NC(=O)[C@H](CCCNC(=N)N)NC(=O)CNC(=O)CC[C@H](NC(=O)CCCCCCCCCCCCCCCCCCC(=O)O)C(=O)O)C(=O)N[C@@H](CC(N)=O)C(=O)N[C@@H]([C@@H](C)O)C(=O)N[C@@H](C)C(=O)N[C@@H]([C@@H](C)O)C(=O)N1)[C@@H](C)O)C(=O)N1CCC[C@H]1C(=O)N[C@@H](CO)C(=O)N[C@@H](CO)C(=O)N[C@H](C(=O)N[C@@H](CC(N)=O)C(=O)N[C@H](C(=O)NCC(=O)N1CCC[C@H]1C(=O)N[C@@H](CC(N)=O)C(=O)N[C@H](C(=O)N[C@@H](Cc1ccc(O)cc1)C(N)=O)[C@@H](C)O)C(C)C)[C@@H](C)O [Example 102] ({C20 diacid-γGlu}-GRCNTATCATQRLAHFLRHSSPNFGAIPSSTNVGPNTY-NH2; disulfide 3-8 (inferred))

From patent US9023789B2, “Amylin analogs and pharmaceutical compositions thereof” (Novo Nordisk A/S, priority 2012, dated 2015)
